Values quoted from earlier work as cited in patent publication US20050004065A1, “Hypoxia regulated genes” (Quark Biotech, Inc., priority 1998, published 2005).

Tested on: neuron cells
Conditions: in vitro; previously shown

SMILES: C[C@H](CCCC(C)(C)O)[C@H]1CC[C@H]2[C@@H]3CC=C4C[C@@H](O)CC[C@]4(C)[C@H]3CC[C@]12C [25-hydroxycholesterol]
- toxicity for neuron cells: toxic for neuron cells in vitro

SMILES: CC(C)C(O)CC[C@@H](C)[C@H]1CC[C@H]2[C@@H]3CC=C4C[C@@H](O)CC[C@]4(C)[C@H]3CC[C@]12C (some centres unmarked) [24-hydroxycholesterol]
- toxicity for neuron cells: toxic for neuron cells in vitro
